Molecular target: T1, glutathione peroxidase (GPx) (Bos taurus, UniProt P00435)
T1 construct: gene GPX1; selenoprotein; EDC-coupled to magnetic nanoparticles for the assay
T1 sequence (P00435 1-205): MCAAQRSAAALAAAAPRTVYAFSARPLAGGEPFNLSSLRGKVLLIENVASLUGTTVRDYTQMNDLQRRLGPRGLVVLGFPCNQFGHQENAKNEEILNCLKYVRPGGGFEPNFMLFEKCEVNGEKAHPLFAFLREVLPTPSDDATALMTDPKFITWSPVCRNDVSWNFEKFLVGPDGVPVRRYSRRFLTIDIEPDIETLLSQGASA
Experiment: stopped-flow microfluidic fluorimetry of competing homovanillic acid dimerization, Lineweaver-Burk
Format: biochemical
Details: GPx immobilized on magnetic nanoparticles; GSH, H2O2, HVA; Tris-HCl 50 mmol/L pH 9, 30 °C; stated non-competitive; listed as at 1 µmol/L inhibitor; printed unit is not a concentration
Text: stopped-flow microfluidic fluorimetry of competing homovanillic acid dimerization, Lineweaver-Burk on glutathione peroxidase (GPx)

CC(C)(C)OO [t-butyl hydroperoxide]
KI: 117.09 µmol/L/s
